Assays:
Human δ-opioid (DOP) = target: T1, Human δ-opioid (DOP) (Homo sapiens, UniProt P41143); assay: Radioligand binding, human δ-opioid (DOP) membranes, FlashPlate, [3H]-Bremazocine; conditions: compound at 10 μM, [3H]-Bremazocine
T1 construct: purchased Perkin Elmer Biosignal
Method: (§1) Cloned receptor membrane preparations from Perkin Elmer Biosignal™ were used in radioligand binding assays.
(§2) A1 Human δ-opioid (DOP), A2 Human κ-Opioid (KOP), A3 Human Melanocortin (MC3), A4 Human Melanocortin (MC4), A5 Human melanocortin (MC5), A6 Human melanin-concentrating hormone (MCH1), A7 Human μ-opioid (MOP), A8 Human neurokinin (NK1), A9 Human neuropeptide Y (NPY-Y1), A10 Human opioid (ORL1) A11 Mouse urotensin (mUR2)
(§3) Screening experiments were performed in either a 50 μl filtration or 25 μl FlashPlate assay format using the following protocol:
(§4) 19.5 μl buffer, 0.5 μl of compound diluted in DMSO, 5 μl of radioligand diluted in binding buffer.
(§5) The day prior to performing the experiment 50 μl DMSO was added to each well of the compound plates to yield compounds at a final concentration of 10 mM. Daughter plates were then created by diluting the compounds further in DMSO to a concentration of 0.5 mM. The mother plates were frozen immediately.
(§6) Immobilize membranes into FlashPlate microplates using PerkinElmer BioSignal's proprietary coating procedure. Dilute radioligand to 5× the final concentration in binding buffer. Add 19.5 μl buffer to each well of the FlashPlate. Add 0.5 μl of DMSO (total value, 5 wells), reference ligand (non-specific value, 3 wells) or compound to the corresponding wells in the FlashPlate microplate. Initiate the reaction by adding 5 μl of radioligand to each well. Apply TopSeal-A onto FlashPlate microplates. Incubate at room temperature for 1 hour in the dark. Count for 30 seconds per well on TopCount Microplate Scintillation and Luminescence Counter (PerkinElmer) using a count delay of 60 seconds.
(§7) Percentage inhibition was calculated using the following formula: [formula]

Human κ-Opioid (KOP) = target: T2, Human κ-Opioid (KOP) (Homo sapiens, UniProt P41145); assay: Radioligand binding, human κ-opioid (KOP) membranes, filtration, [3H]-Diprenorphine; conditions: compound at 10 μM, [3H]-Diprenorphine
T2 construct: purchased Perkin Elmer Biosignal
T2 sequence (P41145 whole entry): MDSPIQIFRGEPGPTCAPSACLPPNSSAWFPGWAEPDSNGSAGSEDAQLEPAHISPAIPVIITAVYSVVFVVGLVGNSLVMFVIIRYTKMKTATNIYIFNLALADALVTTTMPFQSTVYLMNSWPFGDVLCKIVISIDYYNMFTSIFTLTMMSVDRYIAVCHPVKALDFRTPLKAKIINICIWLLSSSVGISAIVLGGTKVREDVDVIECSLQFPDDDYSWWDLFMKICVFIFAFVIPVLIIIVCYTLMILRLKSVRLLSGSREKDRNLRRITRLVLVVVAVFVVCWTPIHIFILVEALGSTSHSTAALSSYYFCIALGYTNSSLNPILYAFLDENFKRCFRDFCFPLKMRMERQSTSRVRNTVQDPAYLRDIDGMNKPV
Method: as §1, §2, §3
(§8) 44 μl membranes diluted in buffer, 1 μl of compound diluted in DMSO, 5 μl of radioligand diluted in binding buffer.
as §5
(§9) Thaw membranes on ice then dilute membranes in binding buffer at a concentration of 1 Unit per well. Dilute radio-ligand to 10 times the final concentration in binding buffer. Add 44 μl of diluted membranes to each well of the deep-well plate. Add 1 μl of DMSO (total value, 5 wells), reference ligand (non-specific value, 3 wells) or compound to the corresponding wells in the deep-well plate. Initiate the reaction by adding 5 μl of radioligand to each well and vortex gently. Incubate at room temperature for 1 hour. During incubation, pre-incubate the Multiscreen Harvest plates in 0.3% PEI. Filter over pre-soaked Multiscreen Harvest plates using a Tomtec Harvester. Wash 9 times with 500 μl of cold 50 mM Tris-HCl pH 7.4 at 4° C. and air-dry for 30 minutes at room temperature under a fume hood. Apply a bottom seal to the Multiscreen Harvest plates. Add 25 μl of MicroScint-0 to each well. Apply TopSeal-A to the plate. Count for 30 seconds per well on TopCount Microplate Scintillation and Luminescence Counter (PerkinElmer) using a count delay of 60 seconds.
as §7

Human Melanocortin (MC3) = target: T3, Human Melanocortin (MC3) (Homo sapiens, UniProt P41968); assay: Radioligand binding, human melanocortin MC3 membranes, FlashPlate, [125I]-NDP-αMSH; conditions: compound at 10 μM, [125I]-NDP-αMSH
T3 construct: purchased Perkin Elmer Biosignal
T3 sequence (P41968 whole entry): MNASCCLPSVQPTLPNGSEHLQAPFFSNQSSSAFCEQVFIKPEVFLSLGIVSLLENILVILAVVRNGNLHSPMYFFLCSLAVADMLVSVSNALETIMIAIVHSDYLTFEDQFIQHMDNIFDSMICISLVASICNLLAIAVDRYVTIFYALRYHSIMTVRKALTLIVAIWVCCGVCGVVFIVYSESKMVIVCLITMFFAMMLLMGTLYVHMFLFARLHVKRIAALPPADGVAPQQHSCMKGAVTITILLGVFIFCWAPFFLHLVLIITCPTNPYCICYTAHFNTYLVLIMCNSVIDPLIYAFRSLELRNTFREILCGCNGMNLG
Method: as §1, §2, §3, §4, §5, §6, §7

Human Melanocortin (MC4) = target: T4, Human Melanocortin (MC4) (Homo sapiens, UniProt P32245); assay: Radioligand binding, human melanocortin MC4 membranes, FlashPlate, [125I]-NDP-αMSH; conditions: compound at 10 μM; [125I]-NDP-αMSH
T4 construct: purchased Perkin Elmer Biosignal
T4 sequence (P32245 whole entry): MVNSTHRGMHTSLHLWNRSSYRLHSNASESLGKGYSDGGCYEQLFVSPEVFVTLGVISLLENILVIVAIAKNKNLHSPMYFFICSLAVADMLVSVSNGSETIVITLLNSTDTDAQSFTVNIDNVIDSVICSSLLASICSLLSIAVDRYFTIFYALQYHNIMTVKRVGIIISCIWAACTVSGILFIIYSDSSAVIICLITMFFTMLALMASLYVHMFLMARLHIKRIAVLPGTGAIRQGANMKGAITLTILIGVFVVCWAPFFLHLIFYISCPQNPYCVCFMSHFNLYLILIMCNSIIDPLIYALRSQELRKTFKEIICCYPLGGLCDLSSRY
Method: as §1, §2, §3, §4, §5, §6, §7

Human melanocortin (MC5) = target: T5, Human melanocortin (MC5) (Homo sapiens, UniProt P33032); assay: Radioligand binding, human melanocortin MC5 membranes, FlashPlate, [125I]-NDP-αMSH; conditions: compound at 10 μM; [125I]-NDP-αMSH
T5 construct: purchased Perkin Elmer Biosignal
T5 sequence (P33032 whole entry): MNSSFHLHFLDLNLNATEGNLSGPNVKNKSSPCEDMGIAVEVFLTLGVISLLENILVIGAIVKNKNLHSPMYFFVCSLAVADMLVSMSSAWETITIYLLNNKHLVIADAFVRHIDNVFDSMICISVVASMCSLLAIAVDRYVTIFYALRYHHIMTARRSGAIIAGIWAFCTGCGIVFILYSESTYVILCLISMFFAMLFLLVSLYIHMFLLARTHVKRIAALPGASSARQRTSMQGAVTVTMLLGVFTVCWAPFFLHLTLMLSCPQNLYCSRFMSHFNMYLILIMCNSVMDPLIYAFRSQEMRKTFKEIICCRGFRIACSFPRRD
Method: as §1, §2, §3, §4, §5, §6, §7

[1] = target: T6, Human melanin-concentrating hormone (MCH1) (Homo sapiens, UniProt Q99705); assay: Radioligand binding, human melanin-concentrating hormone MCH1 membranes, FlashPlate, [125I]-S36057; conditions: compound at 10 μM; [125I]-S36057
T6 construct: purchased Perkin Elmer Biosignal
T6 sequence (Q99705 whole entry): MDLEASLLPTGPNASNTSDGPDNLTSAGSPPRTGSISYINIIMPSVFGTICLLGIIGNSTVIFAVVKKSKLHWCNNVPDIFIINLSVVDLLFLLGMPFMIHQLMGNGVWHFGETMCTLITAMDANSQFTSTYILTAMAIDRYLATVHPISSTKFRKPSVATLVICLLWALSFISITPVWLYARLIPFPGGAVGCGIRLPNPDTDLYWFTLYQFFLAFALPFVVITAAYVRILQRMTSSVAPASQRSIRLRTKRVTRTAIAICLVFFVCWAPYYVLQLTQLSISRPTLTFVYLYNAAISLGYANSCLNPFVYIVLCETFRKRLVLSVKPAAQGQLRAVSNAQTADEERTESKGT
Method: as §1, §2, §3, §4, §5, §6, §7

Human μ-opioid (MOP) = target: T7, Human μ-opioid (MOP) (Homo sapiens, UniProt P35372); assay: Radioligand binding, human μ-opioid (MOP) membranes, FlashPlate, [3H]-Naloxone; conditions: compound at 10 μM, [3H]-Naloxone
T7 construct: purchased Perkin Elmer Biosignal
T7 sequence (P35372 whole entry): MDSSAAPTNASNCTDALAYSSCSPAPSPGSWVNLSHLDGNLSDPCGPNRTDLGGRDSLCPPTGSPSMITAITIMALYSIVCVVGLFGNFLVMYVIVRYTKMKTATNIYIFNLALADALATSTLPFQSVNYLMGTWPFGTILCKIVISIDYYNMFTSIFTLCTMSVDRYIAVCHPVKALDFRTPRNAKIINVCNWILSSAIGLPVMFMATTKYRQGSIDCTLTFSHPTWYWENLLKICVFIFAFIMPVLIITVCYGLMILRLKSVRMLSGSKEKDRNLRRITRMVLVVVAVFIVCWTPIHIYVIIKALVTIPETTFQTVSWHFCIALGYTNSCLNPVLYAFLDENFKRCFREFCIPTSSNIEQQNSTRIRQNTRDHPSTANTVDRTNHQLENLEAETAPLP
Method: as §1, §2, §3, §4, §5, §6, §7

Human neurokinin (NK1) = target: T8, Human neurokinin (NK1) (Homo sapiens, UniProt P25103); assay: Radioligand binding, human neurokinin NK1 membranes, filtration, [125I]-Substance P; conditions: compound at 10 μM; [125I]-Substance P
T8 construct: purchased Perkin Elmer Biosignal
T8 sequence (P25103 whole entry): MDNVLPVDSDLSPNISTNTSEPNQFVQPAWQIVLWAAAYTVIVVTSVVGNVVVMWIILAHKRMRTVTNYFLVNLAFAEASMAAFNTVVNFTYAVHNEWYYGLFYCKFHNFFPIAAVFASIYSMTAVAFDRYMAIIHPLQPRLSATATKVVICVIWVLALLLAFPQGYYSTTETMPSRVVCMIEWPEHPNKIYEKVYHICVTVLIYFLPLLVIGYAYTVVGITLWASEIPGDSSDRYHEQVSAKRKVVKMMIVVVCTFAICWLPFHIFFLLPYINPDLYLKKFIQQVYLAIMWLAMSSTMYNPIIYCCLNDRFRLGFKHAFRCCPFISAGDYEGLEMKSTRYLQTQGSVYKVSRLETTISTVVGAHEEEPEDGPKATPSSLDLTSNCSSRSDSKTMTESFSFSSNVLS
Method: as §1, §2, §3, §8, §5, §9, §7

[2] = target: T9, Human neuropeptide Y (NPY-Y1) (Homo sapiens, UniProt P25929); assay: Radioligand binding, human neuropeptide Y NPY-Y1 membranes, FlashPlate, [125I]-PYY; conditions: compound at 10 μM; [125I]-PYY
T9 construct: purchased Perkin Elmer Biosignal
T9 sequence (P25929 1-384): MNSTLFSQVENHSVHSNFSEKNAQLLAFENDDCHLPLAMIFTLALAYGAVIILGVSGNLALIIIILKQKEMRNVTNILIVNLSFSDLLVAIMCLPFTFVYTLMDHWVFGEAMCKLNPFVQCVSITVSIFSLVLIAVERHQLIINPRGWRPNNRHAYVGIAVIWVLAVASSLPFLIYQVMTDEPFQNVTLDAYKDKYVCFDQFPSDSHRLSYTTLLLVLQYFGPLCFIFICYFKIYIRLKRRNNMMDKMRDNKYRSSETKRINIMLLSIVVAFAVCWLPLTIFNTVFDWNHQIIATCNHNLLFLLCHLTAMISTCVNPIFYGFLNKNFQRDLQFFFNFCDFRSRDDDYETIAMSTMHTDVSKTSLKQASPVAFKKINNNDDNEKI
Method: as §1, §2, §3, §4, §5, §6, §7

Human opioid (ORL1) = target: T10, Human opioid (ORL1) (Homo sapiens, UniProt P41146); assay: Radioligand binding, human opioid ORL1 membranes, FlashPlate, [125I]-Nociceptin; conditions: compound at 10 μM; [125I]-Nociceptin
T10 construct: purchased Perkin Elmer Biosignal
T10 sequence (P41146 whole entry): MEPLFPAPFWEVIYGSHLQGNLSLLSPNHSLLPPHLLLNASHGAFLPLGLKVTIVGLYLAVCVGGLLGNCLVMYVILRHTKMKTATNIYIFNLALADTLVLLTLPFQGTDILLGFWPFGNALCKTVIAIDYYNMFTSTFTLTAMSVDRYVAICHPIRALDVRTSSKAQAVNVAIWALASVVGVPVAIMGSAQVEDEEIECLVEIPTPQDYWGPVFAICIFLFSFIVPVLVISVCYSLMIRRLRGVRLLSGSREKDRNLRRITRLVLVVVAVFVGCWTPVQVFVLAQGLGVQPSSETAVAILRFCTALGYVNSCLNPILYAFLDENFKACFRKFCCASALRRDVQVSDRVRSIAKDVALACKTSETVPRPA
Method: as §1, §2, §3, §4, §5, §6, §7

Mouse urotensin (mUR2) = target: T11, Mouse urotensin (mUR2) (Mus musculus, UniProt Q8VIH9); assay: Radioligand binding, mouse urotensin mUR2 membranes, FlashPlate, [125I]-Urotensin II; conditions: compound at 10 μM; [125I]-Urotensin II
T11 construct: purchased Perkin Elmer Biosignal
T11 sequence (Q8VIH9 1-385): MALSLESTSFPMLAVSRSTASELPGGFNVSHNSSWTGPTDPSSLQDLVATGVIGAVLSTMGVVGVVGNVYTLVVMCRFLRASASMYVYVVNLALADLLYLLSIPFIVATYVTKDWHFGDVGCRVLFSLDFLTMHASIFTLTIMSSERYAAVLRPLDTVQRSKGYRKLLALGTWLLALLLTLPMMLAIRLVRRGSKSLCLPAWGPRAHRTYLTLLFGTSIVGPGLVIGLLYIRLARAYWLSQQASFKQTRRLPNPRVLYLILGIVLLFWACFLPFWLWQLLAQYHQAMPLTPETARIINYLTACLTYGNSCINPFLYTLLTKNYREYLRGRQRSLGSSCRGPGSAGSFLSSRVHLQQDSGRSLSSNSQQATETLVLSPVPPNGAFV
Method: as §1, §2, §3, §4, §5, §6, §7

T1 sequence (P41143 whole entry): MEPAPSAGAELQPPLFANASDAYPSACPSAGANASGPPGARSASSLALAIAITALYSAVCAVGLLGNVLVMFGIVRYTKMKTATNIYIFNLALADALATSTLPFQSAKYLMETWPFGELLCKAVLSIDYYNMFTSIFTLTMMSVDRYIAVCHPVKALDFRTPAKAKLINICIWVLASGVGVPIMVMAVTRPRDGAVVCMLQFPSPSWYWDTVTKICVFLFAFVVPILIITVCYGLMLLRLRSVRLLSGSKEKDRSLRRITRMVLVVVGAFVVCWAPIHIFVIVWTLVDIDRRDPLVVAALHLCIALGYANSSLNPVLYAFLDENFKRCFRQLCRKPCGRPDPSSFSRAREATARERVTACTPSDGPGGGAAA

Row | Structure (SMILES) | A1: inhibition of radioligand binding, human δ-opioid (DOP) (Human δ-opioid (DOP); 10 µM) | A2: inhibition of radioligand binding, human κ-opioid (KOP) (Human κ-Opioid (KOP); 10 µM) | A3: inhibition of radioligand binding, human melanocortin (MC3) (Human Melanocortin (MC3); 10 µM) | A4: inhibition of radioligand binding, human melanocortin (MC4) (Human Melanocortin (MC4)) | A5: inhibition of radioligand binding, human melanocortin (MC5) (Human melanocortin (MC5)) | A6: inhibition of radioligand binding, human melanin-concentrating hormone (MCH1) [1] | A7: inhibition of radioligand binding, human μ-opioid (MOP) (Human μ-opioid (MOP); 10 µM) | A8: inhibition of radioligand binding, human neurokinin (NK1) (Human neurokinin (NK1)) | A9: inhibition of radioligand binding, human neuropeptide Y (NPY-Y1) [2] | A10: inhibition of radioligand binding, human opioid (ORL1) (Human opioid (ORL1)) | A11: inhibition of radioligand binding, mouse urotensin (mUR2) (Mouse urotensin (mUR2)) | other results
1 | COC[C@H]1OC(OCc2ccc(-c3ccccc3)cc2)[C@H](NC(=O)CCCNC(=N)N)[C@@H](OCc2ccc(-c3ccccc3)cc2)[C@@H]1O (single isomer, unassigned) [compound 335] | + (“+” indicates greater than 50% inhibition at 10 μM) | + (“+” indicates greater than 50% inhibition at 10 μM) | + (“+” indicates greater than 50% inhibition at 10 μM) | + (“+” indicates greater than 50% inhibition at 10 μM) | + (“+” indicates greater than 50% inhibition at 10 μM) | + (“+” indicates greater than 50% inhibition at 10 μM) | + (“+” indicates greater than 50% inhibition at 10 μM) | + (“+” indicates greater than 50% inhibition at 10 μM) | − (“−” indicates less than 50% inhibition at 10 μM) | − (“−” indicates less than 50% inhibition at 10 μM) | − (“−” indicates less than 50% inhibition at 10 μM) | 
2 | COC[C@H]1OC(OCc2ccc(-c3ccccc3)cc2)[C@H](NC(=O)CCCNC(=N)N)[C@@H](OCc2ccc(-c3ccccc3)cc2)[C@@H]1O (single isomer, unassigned) [compound 336] | − (“−” indicates less than 50% inhibition at 10 μM) | − (“−” indicates less than 50% inhibition at 10 μM) | − (“−” indicates less than 50% inhibition at 10 μM) | + (“+” indicates greater than 50% inhibition at 10 μM) | + (“+” indicates greater than 50% inhibition at 10 μM) | + (“+” indicates greater than 50% inhibition at 10 μM) | − (“−” indicates less than 50% inhibition at 10 μM) | + (“+” indicates greater than 50% inhibition at 10 μM) | − (“−” indicates less than 50% inhibition at 10 μM) | − (“−” indicates less than 50% inhibition at 10 μM) | − (“−” indicates less than 50% inhibition at 10 μM) | 
3 | COC[C@H]1OC(OCc2ccc(Cl)cc2)[C@H](NC(=O)CCCN)[C@@H](OCc2ccc3ccccc3c2)[C@@H]1O (single isomer, unassigned) [compound 343] |  |  |  | − (“−” indicates less than 50% inhibition at 10 μM) | − (“−” indicates less than 50% inhibition at 10 μM) | − (“−” indicates less than 50% inhibition at 10 μM) |  | + (“+” indicates greater than 50% inhibition at 10 μM) | − (“−” indicates less than 50% inhibition at 10 μM) | − (“−” indicates less than 50% inhibition at 10 μM) | − (“−” indicates less than 50% inhibition at 10 μM) | A1: inhibition of radioligand binding, human δ-opioid (DOP) (Human δ-opioid (DOP)): − (“−” indicates less than 50% inhibition at 10 μM); A2: inhibition of radioligand binding, human κ-opioid (KOP) (Human κ-Opioid (KOP)): − (“−” indicates less than 50% inhibition at 10 μM); A3: inhibition of radioligand binding, human melanocortin (MC3) (Human Melanocortin (MC3)): − (“−” indicates less than 50% inhibition at 10 μM); A7: inhibition of radioligand binding, human μ-opioid (MOP) (Human μ-opioid (MOP)): − (“−” indicates less than 50% inhibition at 10 μM)
4 | COC[C@H]1OC(OCc2ccc(-c3ccccc3)cc2)[C@H](NC(=O)CCCN)[C@@H](OCc2cccc(O)c2)[C@@H]1O (stereo partly shown) [compound 131] |  |  |  |  |  |  |  |  |  |  |  | A1 radioligand binding, percentage inhibition (Human δ-opioid (DOP)): − (“−” indicates less than 50% inhibition at 10 μM); A2 radioligand binding, percentage inhibition (Human κ-Opioid (KOP)): − (“−” indicates less than 50% inhibition at 10 μM); A3 radioligand binding, percentage inhibition (Human Melanocortin (MC3)): − (“−” indicates less than 50% inhibition at 10 μM); A4 radioligand binding, percentage inhibition (Human Melanocortin (MC4)): − (“−” indicates less than 50% inhibition at 10 μM); A5 radioligand binding, percentage inhibition (Human melanocortin (MC5)): − (“−” indicates less than 50% inhibition at 10 μM); A6 radioligand binding, percentage inhibition [1]: + (“+” indicates greater than 50% inhibition at 10 μM); A8 radioligand binding, percentage inhibition (Human neurokinin (NK1)): − (“−” indicates less than 50% inhibition at 10 μM); A9 radioligand binding, percentage inhibition [2]: − (“−” indicates less than 50% inhibition at 10 μM); A10 radioligand binding, percentage inhibition (Human opioid (ORL1)): − (“−” indicates less than 50% inhibition at 10 μM); A11 radioligand binding, percentage inhibition (Mouse urotensin (mUR2)): − (“−” indicates less than 50% inhibition at 10 μM)
